Data taken from patent US20210395239A1 (Hoffmann-La Roche Inc., priority 2018, published 2021).
pIC50: −log10 of the molar value.

Target: T1, human TLR8 (Homo sapiens, UniProt Q9NR97)
T1 construct: host or cells: HEK293 (HEK-Blue hTLR8)
T1 sequence (Q9NR97 27-1041): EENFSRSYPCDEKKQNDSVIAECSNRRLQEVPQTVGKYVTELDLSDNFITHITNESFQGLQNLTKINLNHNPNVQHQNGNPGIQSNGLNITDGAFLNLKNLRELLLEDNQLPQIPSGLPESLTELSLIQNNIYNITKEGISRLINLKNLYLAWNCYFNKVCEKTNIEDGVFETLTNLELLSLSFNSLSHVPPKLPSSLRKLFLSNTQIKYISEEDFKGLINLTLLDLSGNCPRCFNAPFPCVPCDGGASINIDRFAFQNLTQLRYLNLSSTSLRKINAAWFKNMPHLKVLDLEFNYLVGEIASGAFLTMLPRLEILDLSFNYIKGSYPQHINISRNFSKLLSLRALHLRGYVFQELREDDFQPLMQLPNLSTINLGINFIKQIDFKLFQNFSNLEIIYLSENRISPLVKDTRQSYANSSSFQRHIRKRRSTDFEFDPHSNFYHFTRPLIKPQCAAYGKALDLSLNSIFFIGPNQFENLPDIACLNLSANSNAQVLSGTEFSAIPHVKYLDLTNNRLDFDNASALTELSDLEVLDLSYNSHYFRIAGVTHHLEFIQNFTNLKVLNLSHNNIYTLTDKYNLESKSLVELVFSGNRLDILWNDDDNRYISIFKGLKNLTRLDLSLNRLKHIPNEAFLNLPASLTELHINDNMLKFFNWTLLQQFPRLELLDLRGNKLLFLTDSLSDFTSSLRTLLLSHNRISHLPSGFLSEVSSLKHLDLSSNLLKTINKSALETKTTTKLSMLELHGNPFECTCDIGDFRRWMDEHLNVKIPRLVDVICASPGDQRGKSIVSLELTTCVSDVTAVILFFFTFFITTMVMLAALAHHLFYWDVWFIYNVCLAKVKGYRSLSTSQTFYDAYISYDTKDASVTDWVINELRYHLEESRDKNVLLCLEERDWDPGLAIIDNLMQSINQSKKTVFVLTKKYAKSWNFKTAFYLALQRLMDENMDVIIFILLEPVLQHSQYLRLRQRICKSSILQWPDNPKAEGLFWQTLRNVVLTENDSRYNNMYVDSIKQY
Assay: HEK293-Blue-hTLR-8 cells assay (SEAP reporter, R848 stimulation)
Type: cell-based
Settings: HEK293-Blue-hTLR8 cells, R848, 20 hrs; read-out: HEK/hTLR8 IC50
In short: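 Antagonism read as reduced R848-induced SEAP reporter secretion, detected by QUANTI-Blue absorbance at 620–655 nm after 2 h. Reporter cells were exposed to compound dilutions in DMEM/10% FBS, 1% DMSO, for 20 h at 37° C.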

Row | SMILES | pIC50
1 | Cc1cc(N2CCN(C[C@H]3CN(c4ccc(C#N)c5ncccc45)C[C@@H](C)O3)CC2)nc(N2CCC(N)C(F)(F)C2)n1 (stereo partly drawn) [Example 86, 5-[(2S,6R)-2-[[4-[2-(4-amino-3,3-difluoro-1-piperidyl)-6-methyl-pyrimidin-4-yl]piperazin-1-yl]methyl]-6-methyl-morpholin-4-yl]quinoline-8-carbonitrile] | 8.22
2 | Cc1cc(N2CCN(C[C@H]3CN(c4ccc(C#N)c5ncccc45)C[C@@H](C)O3)CC2)nc(N2CC[C@@H](F)C(N)C2)n1 (single isomer, unassigned) [Example 84] | 8.15
3 | Cc1cc(N2CCN(C[C@H]3CN(c4ccc(C#N)c5ncccc45)C[C@@H](C)O3)CC2)nc(N[C@@H]2CNC[C@@H]2F)n1 [Example 71, 5-[(2S,6R)-2-[[4-[2-[[(3R,4S)-4-fluoropyrrolidin-3-yl]amino]-6-methyl-pyrimidin-4-yl]piperazin-1-yl]methyl]-6-methyl-morpholin-4-yl]quinoline-8-carbonitrile] | 7.82
4 | COC1CNCC1Nc1nc(C)cc(N2CCN(C[C@H]3CN(c4ccc(C#N)c5ncccc45)C[C@@H](C)O3)CC2)n1 (stereo in doubt) [Example 70, 5-[(2S,6R)-2-[[4-[2-[[(3R,4R)-4-methoxypyrrolidin-3-yl]amino]-6-methyl-pyrimidin-4-yl]piperazin-1-yl]methyl]-6-methyl-morpholin-4-yl]quinoline-8-carbonitrile] | 7.92
5 | Cc1cc(N2CCN(C[C@H]3CN(c4ccc(C#N)c5ncccc45)C[C@@H](C)O3)CC2)nc(N2CC(N)CC(F)(F)C2)n1 (stereo partly drawn) [Example 80, 5-[(2S,6R)-2-[[4-[2-(5-amino-3,3-difluoro-1-piperidyl)-6-methyl-pyrimidin-4-yl]piperazin-1-yl]methyl]-6-methyl-morpholin-4-yl]quinoline-8-carbonitrile] | 8.22
6 | C[C@@H]1CN(c2ccc(C#N)c3ncccc23)C[C@H](CN2CCN(c3ccccc3C3CNCCO3)CC2)O1 (stereo partly drawn) [Example 89, 5-[(2R,6S)-2-methyl-6-[[4-(2-morpholin-2-ylphenyl)piperazin-1-yl]methyl]morpholin-4-yl]quinoline-8-carbonitrile] | 7.54
7 | Cc1cc(N2CCN(C[C@H]3CN(c4ccc(C#N)c5ncccc45)C[C@@H](C)O3)CC2)nc(N2CC[C@@H](F)[C@@H](N)C2)n1 [Example 83, 5-[(2R,6S)-2-methyl-6-[[4-[6-methyl-2-[(3S,4R)-3-amino-4-fluoro-1-piperidyl]-pyrimidin-4-yl]piperazin-1-yl]methyl]morpholin-4-yl]quinoline-8-carbonitrile] | 8.52
8 | Cc1cc(N2CCN(C[C@H]3CN(c4ccc(C#N)c5ncccc45)C[C@@H](C)O3)CC2)nc(NC2CNCC2F)n1 (stereo in doubt) [Example 73, 5-[(2S,6R)-2-[[4-[2-[[(3S,4R)-4-fluoropyrrolidin-3-yl]amino]-6-methyl-pyrimidin-4-yl]piperazin-1-yl]methyl]-6-methyl-morpholin-4-yl]quinoline-8-carbonitrile] | 7.77
9 | CO[C@@H]1CN(c2nc(C)cc(N3CCN(C[C@H]4CN(c5ccc(C#N)c6ncccc56)C[C@@H](C)O4)CC3)n2)C[C@@H]1N [Example 72, 5-[(2S,6R)-2-[[4-[2-[(3S,4R)-3-amino-4-methoxy-pyrrolidin-1-yl]-6-methyl-pyrimidin-4-yl]piperazin-1-yl]methyl]-6-methyl-morpholin-4-yl]quinoline-8-carbonitrile] | 8.52

Continued, values first:

Row | pIC50 | SMILES
10 | 8.70 | COC1CN(c2nc(C)cc(N3CCN(C[C@H]4CN(c5ccc(C#N)c6ncccc56)C[C@@H](C)O4)CC3)n2)CC1N (single isomer, unassigned) [Example 88]
11 | 8.70 | Cc1cc(N2CCN(C[C@H]3CN(c4ccc(C#N)c5ncccc45)C[C@@H](C)O3)CC2)nc(N2CC(N)C2)n1 [Example 87, 5-[(2S,6R)-2-[[4-[2-(3-aminoazetidin-1-yl)-6-methyl-pyrimidin-4-yl]piperazin-1-yl]methyl]-6-methyl-morpholin-4-yl]quinoline-8-carbonitrile]
12 | 8.70 | Cc1cc(N2CCN(C[C@H]3CN(c4ccc(C#N)c5ncccc45)C[C@@H](C)O3)CC2)nc(N2C[C@@H](N)[C@H](F)C2)n1 [Example 79, 5-[(2S,6R)-2-[[4-[2-[(3R,4R)-3-amino-4-fluoro-pyrrolidin-1-yl]-6-methyl-pyrimidin-4-yl]piperazin-1-yl]methyl]-6-methyl-morpholin-4-yl]quinoline-8-carbonitrile]
13 | 8.70 | CO[C@H]1CN(c2nc(C)cc(N3CCN(C[C@H]4CN(c5ccc(C#N)c6ncccc56)C[C@@H](C)O4)CC3)n2)CCC1N (stereo in doubt) [Example 90, 5-[(2S,6R)-2-[[4-[2-[(3S,4S)-4-amino-3-methoxy-1-piperidyl]-6-methyl-pyrimidin-4-yl]piperazin-1-yl]methyl]-6-methyl-morpholin-4-yl]quinoline-8-carbonitrile]
14 | 8.70 | Cc1cc(N2CCN(C[C@H]3CN(c4ccc(C#N)c5ncccc45)C[C@@H](C)O3)CC2)nc(N2C[C@@H](N)C[C@@H](F)C2)n1 [Example 77, 5-[(2S,6R)-2-[[4-[2-[(3S,5R)-3-amino-5-fluoro-1-piperidyl]-6-methyl-pyrimidin-4-yl]piperazin-1-yl]methyl]-6-methyl-morpholin-4-yl]quinoline-8-carbonitrile]
15 | 8.52 | Cc1cc(N2CCN(C[C@H]3CN(c4ccc(C#N)c5ncccc45)C[C@@H](C)O3)CC2)nc(N2C[C@H](N)C[C@H](F)C2)n1 (relative stereo) [Example 74, 5-[(2R,6S)-2-methyl-6-[[4-[6-methyl-2-[cis-3-amino-5-fluoro-1-piperidyl]pyrimidin-4-yl]piperazin-1-yl]methyl]morpholin-4-yl]quinoline-8-carbonitrile]
16 | 8.52 | Cc1cc(N2CCN(C[C@H]3CN(c4ccc(C#N)c5ncccc45)C[C@@H](C)O3)CC2)nc(N[C@@H]2CNC[C@H]2F)n1 [Example 76, 5-[(2S,6R)-2-[[4-[2-[[(3R,4R)-4-fluoropyrrolidin-3-yl]amino]-6-methyl-pyrimidin-4-yl]piperazin-1-yl]methyl]-6-methyl-morpholin-4-yl]quinoline-8-carbonitrile]
17 | 8.70 | CO[C@H]1CN(c2nc(C)cc(N3CCN(C[C@H]4CN(c5ccc(C#N)c6ncccc56)C[C@@H](C)O4)CC3)n2)C[C@@H]1N (single isomer, unassigned) [Example 69A]
18 | 9.00 | Cc1cc(N2CCN(C[C@H]3CN(c4ccc(C#N)c5ncccc45)C[C@@H](C)O3)CC2)nc(N2CC[C@@H](N)C(F)C2)n1 (stereo in doubt) [Example 82, 5-[(2S,6R)-2-[[4-[2-[(3R,4R)-4-amino-3-fluoro-1-piperidyl]-6-methyl-pyrimidin-4-yl]piperazin-1-yl]methyl]-6-methyl-morpholin-4-yl]quinoline-8-carbonitrile]
19 | 9.00 | Cc1cc(N2CCN(C[C@H]3CN(c4ccc(C#N)c5ncccc45)C[C@@H](C)O3)CC2)nc(N2CC[C@@H](N)[C@@H](F)C2)n1 [Example 78, 5-[(2S,6R)-2-[[4-[2-[(3S,4R)-4-amino-3-fluoro-1-piperidyl]-6-methyl-pyrimidin-4-yl]piperazin-1-yl]methyl]-6-methyl-morpholin-4-yl]quinoline-8-carbonitrile]
20 | 8.70 | Cc1cc(N2CCN(C[C@H]3CN(c4ccc(C#N)c5ncccc45)C[C@@H](C)O3)CC2)nc(N2CCNC(C(C)(C)O)C2)n1 (stereo partly drawn) [Example 81, 5-[(2S,6R)-2-[[4-[2-[3-(1-hydroxy-1-methyl-ethyl)piperazin-1-yl]-6-methyl-pyrimidin-4-yl]piperazin-1-yl]methyl]-6-methyl-morpholin-4-yl]quinoline-8-carbonitrile]
21 | 8.52 | Cc1cc(N2CCN(C[C@H]3CN(c4ccc(C#N)c5ncccc45)C[C@@H](C)O3)CC2)nc(N2C[C@H](N)C[C@@H](F)C2)n1 (relative stereo) [Example 75, 5-[(2R,6S)-2-methyl-6-[[4-[6-methyl-2-[trans-3-amino-5-fluoro-1-piperidyl]pyrimidin-4-yl]piperazin-1-yl]methyl]morpholin-4-yl]quinoline-8-carbonitrile]
22 | 8.70 | CO[C@@H]1CN(c2nc(C)cc(N3CCN(C[C@H]4CN(c5ccc(C#N)c6ncccc56)C[C@@H](C)O4)CC3)n2)C[C@H]1N (single isomer, unassigned) [Example 69B]
